Patent US5707966A, “Antithrombotic agents” (Eli Lilly and Company, priority 1995, dated 1998)
Structures can show the parent of a compound that is named as a salt. Where two headings read alike, the source gives them in different places.

Experiments:
Assay type in all cases: biochemical
factor Xa = molecular target: T1, factor Xa (Homo sapiens, UniProt P00742); assay: Kass with factor Xa, chromogenic substrate
T1 construct: Human factors X, Xa, IXa, XIa, and XIIa are purchased; purchased Enzyme Research Laboratories, South Bend, Ind
T1 sequence (P00742 235-488 limits assumed): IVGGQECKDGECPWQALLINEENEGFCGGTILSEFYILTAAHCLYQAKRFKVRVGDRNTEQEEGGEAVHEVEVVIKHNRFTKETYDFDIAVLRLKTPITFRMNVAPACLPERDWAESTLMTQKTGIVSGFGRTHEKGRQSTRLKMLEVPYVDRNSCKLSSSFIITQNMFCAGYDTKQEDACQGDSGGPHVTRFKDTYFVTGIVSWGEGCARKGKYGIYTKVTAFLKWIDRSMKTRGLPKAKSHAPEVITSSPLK
T1 sequence (P00742 41-179 partner limits assumed): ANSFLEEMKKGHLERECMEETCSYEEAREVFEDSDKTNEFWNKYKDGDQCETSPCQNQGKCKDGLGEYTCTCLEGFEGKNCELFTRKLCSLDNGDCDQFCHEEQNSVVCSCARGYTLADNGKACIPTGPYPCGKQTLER

Human plasma [1] = assay: Human plasma anticoagulation, prothrombin time (PT); conditions: concentration required to double the PT, linear extrapolation
How it was run: (§1)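 Prolongation of human plasma clotting was measured for PT (thromboplastin reagent), APTT (Actin, 120 s, then 0.02M CaCl2) and TT (bovine thrombin, 10 NIH units/mL). Concentration needed for a doubled time was estimated by linear extrapolation.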

Human plasmin = molecular target: T2, Human plasmin (Homo sapiens, UniProt P00747); assay: Kass with plasmin, chromogenic substrate
T2 construct: Human plasmin is purchased; purchased Boehringer Mannheim, Indianapolis, Ind
T2 sequence (P00747 97-810): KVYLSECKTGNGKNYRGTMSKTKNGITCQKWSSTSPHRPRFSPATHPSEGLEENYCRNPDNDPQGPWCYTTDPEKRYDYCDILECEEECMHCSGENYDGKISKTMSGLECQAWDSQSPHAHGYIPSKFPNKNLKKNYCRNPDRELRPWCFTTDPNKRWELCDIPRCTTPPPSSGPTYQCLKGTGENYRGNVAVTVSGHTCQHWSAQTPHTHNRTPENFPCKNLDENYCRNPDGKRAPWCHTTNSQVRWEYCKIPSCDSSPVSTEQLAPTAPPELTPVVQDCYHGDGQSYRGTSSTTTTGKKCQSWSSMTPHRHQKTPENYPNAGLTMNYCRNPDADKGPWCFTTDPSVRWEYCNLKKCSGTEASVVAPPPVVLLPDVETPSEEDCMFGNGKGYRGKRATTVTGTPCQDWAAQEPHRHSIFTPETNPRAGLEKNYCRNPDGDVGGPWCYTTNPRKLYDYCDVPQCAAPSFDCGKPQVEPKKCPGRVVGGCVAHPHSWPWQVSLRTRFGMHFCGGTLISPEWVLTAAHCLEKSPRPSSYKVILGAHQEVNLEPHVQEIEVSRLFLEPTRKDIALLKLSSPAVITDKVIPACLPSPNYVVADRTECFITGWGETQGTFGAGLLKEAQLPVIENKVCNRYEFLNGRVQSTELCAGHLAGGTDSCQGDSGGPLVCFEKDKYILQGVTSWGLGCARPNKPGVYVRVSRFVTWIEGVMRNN
T2 sequence (P00747 97-580 partner limits assumed): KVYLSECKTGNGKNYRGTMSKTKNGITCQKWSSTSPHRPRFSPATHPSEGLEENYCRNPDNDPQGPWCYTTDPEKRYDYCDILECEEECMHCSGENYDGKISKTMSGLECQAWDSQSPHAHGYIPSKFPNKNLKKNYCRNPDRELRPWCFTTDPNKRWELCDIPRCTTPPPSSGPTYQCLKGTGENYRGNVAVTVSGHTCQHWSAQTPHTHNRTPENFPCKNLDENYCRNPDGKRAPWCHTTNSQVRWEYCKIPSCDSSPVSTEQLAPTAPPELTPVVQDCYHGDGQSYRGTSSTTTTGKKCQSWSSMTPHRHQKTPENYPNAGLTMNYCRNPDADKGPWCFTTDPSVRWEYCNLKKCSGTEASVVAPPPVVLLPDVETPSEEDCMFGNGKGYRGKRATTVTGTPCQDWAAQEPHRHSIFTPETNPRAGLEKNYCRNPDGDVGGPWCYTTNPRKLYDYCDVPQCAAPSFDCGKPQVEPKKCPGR
Experimental: (§2) By substantially following the procedures described above for human thrombin, and using other human blood coagulation system serine proteases and proteases of the fibrinolytic system with the appropriate chromogenic substrates, identified below, selectivity of the compounds of the present invention with respect to the coagulation factor serine proteases and with respect to the fibrinolytic system serine proteases are evaluated as well as their substantial lack of interference with serine proteases of the fibrinolytic system. Thrombin inhibitors preferably should spare fibrinolysis induced by urokinase, tissue plasminogen activator (t-PA) and streptokinase. This would be important to the therapeutic use of such agents as an adjunct to streptokinase, t-PA or urokinase thrombolytic therapy and to the use of such agents as an endogenous fibrinolysis-sparing (with respect to t-PA and urokinase) antithrombotic agent. In addition to the lack of interference with the amidase activity of the fibrinolytic proteases, such fibrinolytic system sparing can be studied by the use of human plasma clots and their lysis by the respective fibrinolytic plasminogen activators.
(§3) Human plasmin is purchased from Boehringer Mannheim, Indianapolis, Ind.; nt-PA is purchased as single chain activity reference from American Diagnostica, Greenwich, Conn. modified-t-PA6 (mt-PA6) is prepared at Eli Lilly and Company by procedure known in the art (See, Burck, et al., J. Biol. Chem., 265, […] (1990). Plasmin chromogenic substrate H-D-Val-Leu-Lys-p-nitroanilide and tissue plasminogen activator (t-PA) substrate H-D-Ile-Pro-Arg-p-nitroanilide are purchased from Kabi Vitrum, Stockholm, Sweden.

Bovine trypsin = molecular target: T3, Bovine trypsin (Bos taurus, UniProt P00760); assay: Kass with trypsin, chromogenic substrate
T3 construct: Bovine trypsin is purchased; purchased Worthington Biochemicals, Freehold, N.J
T3 sequence (P00760 24-246): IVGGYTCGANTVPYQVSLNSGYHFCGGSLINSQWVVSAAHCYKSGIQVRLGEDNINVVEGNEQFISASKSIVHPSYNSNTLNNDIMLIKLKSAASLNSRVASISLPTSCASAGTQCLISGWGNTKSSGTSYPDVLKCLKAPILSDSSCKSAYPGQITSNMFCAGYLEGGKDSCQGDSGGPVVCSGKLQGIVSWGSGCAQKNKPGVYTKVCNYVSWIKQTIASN

Human Thrombin = Human Thrombin (Homo sapiens, UniProt P00734); assay: Inhibition of amidase activity of thrombin (Kass)
Human plasma [2] = assay: Human plasma anticoagulation, thrombin time (TT); conditions: concentration required to double the thrombin time, linear extrapolation
How it was run: as §1

t-PA = molecular target: T4, t-PA (Homo sapiens, UniProt P00750); assay: Kass with t-PA, chromogenic substrate; conditions: substrate H-D-Ile-Pro-Arg-p-nitroanilide
T4 construct: purchased American Diagnostica, Greenwich, Conn
T4 sequence (P00750 36-562): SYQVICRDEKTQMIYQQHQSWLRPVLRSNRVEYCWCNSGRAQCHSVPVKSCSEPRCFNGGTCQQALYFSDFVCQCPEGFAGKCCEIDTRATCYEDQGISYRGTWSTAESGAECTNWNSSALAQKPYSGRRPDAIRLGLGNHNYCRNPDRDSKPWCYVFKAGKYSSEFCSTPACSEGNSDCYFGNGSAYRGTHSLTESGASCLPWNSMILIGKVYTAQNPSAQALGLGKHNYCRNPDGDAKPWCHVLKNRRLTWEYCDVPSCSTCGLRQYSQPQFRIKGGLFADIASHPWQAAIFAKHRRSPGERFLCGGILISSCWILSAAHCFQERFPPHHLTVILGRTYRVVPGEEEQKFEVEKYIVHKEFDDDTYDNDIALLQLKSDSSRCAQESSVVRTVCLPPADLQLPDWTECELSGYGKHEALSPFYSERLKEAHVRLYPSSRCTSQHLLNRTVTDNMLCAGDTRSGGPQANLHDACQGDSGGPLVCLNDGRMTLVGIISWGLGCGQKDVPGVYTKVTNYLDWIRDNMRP
Experimental: as §2, §3

Human plasma [3] = assay: Human plasma anticoagulation, activated partial thromboplastin time (APTT); conditions: concentration required to double the APTT, linear extrapolation
How it was run: as §1

[4] = substrate N-Benzoyl-Ile-Glu-Gly-Arg-p-nitroanilide
[5] = substrate H-D-Val-Leu-Lys-p-nitroanilide
[6] = substrate N-Benzoyl-Phe-Val-Arg-p-nitroanilide
[7] = mean over a range of concentrations, […]

Compound | Kass Xa (factor Xa; [4]) | Kass Plasmin (Human plasmin; [5]) | Kass Trypsin (Bovine trypsin; [6]) | Kass Human Thrombin (Human Thrombin; [7]) | Kass t-PA (t-PA) | Human Plasma Anticoagulation 2× Clotting time PT (Human plasma [1]) | Human Plasma Anticoagulation 2× Clotting time TT (Human plasma [2]) | Human Plasma Anticoagulation 2× Clotting time APTT (Human plasma [3]) | Kass Human Thrombin (Human Thrombin) | Kass Xa (factor Xa) | Kass Plasmin (Human plasmin) | Kass Trypsin (Bovine trypsin)
CCS(=O)(=O)N[C@H](Cc1ccccc1)C(=O)N1CCC[C@H]1C(=O)NCCCc1ccc(C(=N)N)cc1 [Example 30, EtSO2 -D-Phe-Pro-p-NHCH2 CH2 CH2 --C6 H4 C(=NH)NH2.HCl] | 0.02 × 10^6 (L/mole) | < 0.001 × 10^6 (L/mole) | 0.03 × 10^6 (L/mole) | 0.55 × 10^6 (L/mole) | < 0.001 × 10^6 (L/mole) | 14,400 ng/mL | 1,000 ng/mL | 14,000 ng/mL |  |  |  | 
O=C(O)CN[C@H](CC1CCCCC1)C(=O)N1CCC[C@H]1C(=O)NCCC1=CCNCC1 [Example 59, HO2 CCH2 -D-Cha-Pro-4-NHCH2 CH2 -3,4-dehydro-piperidine.HCl] | < 0.001 × 10^6 (L/mole) | < 0.001 × 10^6 (L/mole) | 0.21 × 10^6 (L/mole) | 1.10 × 10^6 (L/mole) | < 0.001 × 10^6 (L/mole) | 7,000 ng/mL | 420 ng/mL | 5,500 ng/mL |  |  |  | 
CCS(=O)(=O)N[C@H](Cc1ccccc1)C(=O)N1CCC[C@H]1C(=O)NCc1cccc(C(=N)N)c1 [Example 24, EtSO2 -D-Phe-Pro-m-NHCH2 --C6 H4 C(=NH)NH2.HCl] | < 0.001 × 10^6 (L/mole) | < 0.001 × 10^6 (L/mole) | 0.03 × 10^6 (L/mole) | 0.78 × 10^6 (L/mole) | < 0.001 × 10^6 (L/mole) | 25,000 ng/mL | 1,000 ng/mL | 25,900 ng/mL |  |  |  | 
O=C(O)CN[C@H](CC1CCCCC1)C(=O)N1CCC[C@H]1C(=O)NCCCC1=CCNCC1 [Example 60, HO2 CCH2 -D-Cha-Pro-4-NHCH2 CH2 CH2 -3,4-dehydro-piperidine.HCl] | < 0.001 × 10^6 (L/mole) | < 0.001 × 10^6 (L/mole) | 0.03 × 10^6 (L/mole) | 0.24 × 10^6 (L/mole) | < 0.001 × 10^6 (L/mole) | 77,700 ng/mL | 3,200 ng/mL | 22,200 ng/mL |  |  |  | 
N=C(N)c1ccc(CNC(=O)[C@@H]2C[C@@H]3CCCC[C@@H]3N2C(=O)[C@@H](CC2CCCCC2)NCC(=O)O)cc1 (relative stereo) [Example 49, HOOCCH2 -D-Cha-cis-Ohi-p-NHCH2 C6 H4 C(NH)NH2.HCl] | 3.4 × 10^6 (L/mole) | 0.84 × 10^6 (L/mole) | 940 × 10^6 (L/mole) |  | 0.04 × 10^6 (L/mole) | 130 ng/mL | 5 ng/mL | 130 ng/mL | 400 |  |  | 
CCS(=O)(=O)N[C@H](Cc1ccccc1)C(=O)N1CCC[C@H]1C(=O)NCc1cccc(NC(=N)N)c1 [Example 36, EtSO2 -D-Phe-Pro-m-NHCH2 C6 H4 NHC(NH)NH2.HCl] | < 0.001 × 10^6 (L/mole) | < 0.001 × 10^6 (L/mole) | 0.01 × 10^6 (L/mole) | 0.06 × 10^6 (L/mole) | < 0.001 × 10^6 (L/mole) | > 91,000 ng/mL | 7,700 ng/mL | > 91,000 ng/mL |  |  |  | 
N=C(N)N1CCC(CCNC(=O)[C@@H]2CCCN2C(=O)[C@@H](CC2CCCCC2)NCC(=O)O)CC1 [Example 57, HO2 CCH2 -D-Cha-Pro-4-NHCH2 CH2 -1-amidinopiperidine.HCl] | 0.01 × 10^6 (L/mole) | 0.01 × 10^6 (L/mole) | 0.24 × 10^6 (L/mole) |  | < 0.001 × 10^6 (L/mole) | 340 ng/mL | 14 ng/mL | 360 ng/mL | 39 |  |  | 
D-Phe-Pro-p-NHCH2 C6 H4 C(NH)NH2.HCl [Example 15] | 0.0070 × 10^6 (L/mole) | 0.017 × 10^6 (L/mole) | 2.6 × 10^6 (L/mole) |  | 0.004 × 10^6 (L/mole) |  | 9 ng/mL | 89 ng/mL |  |  |  | 
CCS(=O)(=O)N[C@@H](C(=O)N1[C@H](C(=O)NCc2ccc(C(=N)N)cc2)C[C@@H]2CCCC[C@@H]21)c1ccccc1 (relative stereo) [Example 44, EtSO2 -Phg-cis-Ohi-p-NHCH2 C6 H4 C(NH)NH2.HCl] |  |  |  |  | 0.04 × 10^6 (L/mole) | 170 ng/mL | 4 ng/mL | 100 ng/mL |  | 0.66 | 1.8 | 2,600

Now from value to compound, other results behind:

Kass Xa (factor Xa; [4]) | Kass Plasmin (Human plasmin; [5]) | Kass Trypsin (Bovine trypsin; [6]) | Kass Human Thrombin (Human Thrombin; [7]) | Kass t-PA (t-PA) | Compound | Human Plasma Anticoagulation 2× Clotting time PT (Human plasma [1]) | Human Plasma Anticoagulation 2× Clotting time TT (Human plasma [2]) | Human Plasma Anticoagulation 2× Clotting time APTT (Human plasma [3]) | Kass Human Thrombin (Human Thrombin) | Kass Xa (factor Xa) | Kass Plasmin (Human plasmin) | Kass Trypsin (Bovine trypsin)
0.043 × 10^6 (L/mole) | 0.042 × 10^6 (L/mole) | 8.5 × 10^6 (L/mole) | 3.0 × 10^6 (L/mole) | 0.004 × 10^6 (L/mole) | D-hPro-Pro(4-cis-PhO)-p-NHCH2 --C6 H4 C(NH)NH2.2HCl [Example 22] | 1,000 ng/mL | 170 ng/mL | 2,300 ng/mL |  |  |  | 
4.3 × 10^6 (L/mole) | 1.8 × 10^6 (L/mole) | 2,200 × 10^6 (L/mole) | 40 × 10^6 (L/mole) | 0.04 × 10^6 (L/mole) | CC(C)CC[C@H]1C[C@@H](C(=O)NCc2ccc(C(=N)N)cc2)N(C(=O)[C@@H](CC2CCCCC2)NCC(=O)O)C1 (relative stereo) [Example 50] | 420 ng/mL | 35 ng/mL | 460 ng/mL |  |  |  | 
0.14 × 10^6 (L/mole) | < 0.001 × 10^6 (L/mole) | 0.05 × 10^6 (L/mole) | 0.07 × 10^6 (L/mole) | < 0.001 × 10^6 (L/mole) | CCS(=O)(=O)N[C@H](Cc1ccccc1)C(=O)N1CCC[C@H]1C(=O)NCCCc1cccc(C(=N)N)c1 [Example 31, EtSO2 -D-Phe-Pro-m-NHCH2 CH2 CH2 --C6 H4 C(=NH)NH2.HCl] | 30,000 ng/mL | 10,800 ng/mL | 34,500 ng/mL |  |  |  | 
0.20 × 10^6 (L/mole) | 0.01 × 10^6 (L/mole) | 3.6 × 10^6 (L/mole) | 490 × 10^6 (L/mole) | < 0.001 × 10^6 (L/mole) | N=C(N)N1CCC(CNC(=O)[C@@H]2CCCN2C(=O)[C@@H](CC2CCCCC2)NCC(=O)O)CC1 [Example 56, HO2 CCH2 -D-Cha-Pro-4-NHCH2 -1-amidinopiperidine.HCl] | 200 ng/mL | 5 ng/mL | 160 ng/mL |  |  |  | 
0.14 × 10^6 (L/mole) | 0.16 × 10^6 (L/mole) | 41 × 10^6 (L/mole) |  | 0.0056 × 10^6 (L/mole) | N=C(N)c1ccc(CNC(=O)[C@@H]2CCCN2C(=O)[C@H]2C[C@H]3CCCC[C@H]3CN2)cc1 [Example 19, D-3-Piq-Pro-p-NHCH2 C6 H4 C(NH)NH2.3HCl] | 540 ng/mL | 58 ng/mL | 300 ng/mL |  |  |  | 
